Experimental findings from patent US9199941B2, “Pyrazole indanyl carboxamides” (BAYER CROPSCIENCE AG, priority 2012, dated 2015) are described below.

For one data set, the system named is Pyricularia oryzae. Format: in vivo. The note with it: 500 ppm, preventive spray, rice plants, grading 6 days after contamination.
In a further data set the test system is Puccinia recondita. Put plainly: In vivo preventive test on Puccinia recondita (brown rust on wheat). The note with it: preventive spray, wheat plants, grading 12 days after contamination. The method, then:
Plants, used as controls, are treated with the mixture of acetone/tween/DMSO/water not containing the active material. After 24 hours, the plants are contaminated by spraying the leaves with an aqueous suspension of Puccinia […] spores (100 000 spores per ml). […] Grading (% of efficacy) is carried out 12 days after the contamination, in comparison with the control plants.

A further data set deals with Phakopsora pachyrhizi. Kind of data set: In vivo Phakopsora test (soybeans) / preventive. The note with it: 10 ppm of active ingredient, evaluated 7 days after the inoculation. The method, then: [table] To produce a suitable preparation of active compound, 1 part by weight of active compound is mixed with the stated amounts of solvent and emulsifier, and the concentrate is diluted with water to the desired concentration. To test for preventive activity, young plants are sprayed with the preparation of active compound at the stated rate of application. […] The plants remain in the incubation cabinet at approximately 24° C. and a relative atmospheric humidity of approximately 80% and a day/night interval of 12 h.

In the next data set the test system is Uromyces appendiculatus. Put plainly: In vivo preventive test on Uromyces appendiculatus (bean rust). The note with it: preventive spray, bean plants, grading 11 days after contamination. As to the method:
Bean plants (“Saxa” variety), sown in starter cups on a 50/50 peat soil-pozzolana substrate and grown at 24° C., are treated at the 2-leaf stage (9 cm height) by spraying with the active ingredient prepared as described above. Plants, used as controls, are treated with the mixture of acetone/tween/DMSO/water not containing the active material. After 24 hours, the plants are contaminated by spraying the leaves with an aqueous suspension of Uromyces appendiculatus spores (150 000 spores per ml). […] Grading (% of efficacy) is carried out 11 days after the contamination, in comparison with the control plants.

The test system of data set [1] is Blumeria graminis fsp. hordei. Kind of data set: In vivo Blumeria test (barley) / preventive. The note with it: 500 ppm of active ingredient, evaluated 7 days after the inoculation. As to the method:
[table] To produce a suitable preparation of active compound, 1 part by weight of active compound or active compound combination is mixed with the stated amounts of solvent and emulsifier, and the concentrate is diluted with water to the desired concentration. To test for preventive activity, young plants are sprayed with the preparation of active compound or active compound combination at the stated rate of application. After the spray coating has been dried, the plants are dusted with spores of Blumeria graminis fsp. hordei. The plants are placed in the greenhouse at a temperature of approximately 18° C. and a relative atmospheric humidity of approximately 80% to promote the development of mildew pustules.

For the next data set, the system named is Sphaerotheca fuliginea. Put plainly: In vivo preventive test on Sphaerotheca fuliginea (powdery mildew on cucurbits). The note with it: preventive spray, gherkin plants, grading 12 days after contamination. As to the method:
Gherkin plants (“Vert petit de Paris” variety), sown in starter cups on a 50/50 peat soil-pozzolana substrate and grown at 24° C., are treated at the Z11 cotyledon stage by spraying with the active ingredient prepared as described above. Plants, used as controls, are treated with the mixture of acetone/tween/DMSO/water not containing the active material. After 24 hours, the plants are contaminated by spraying the cotyledons with an aqueous suspension of Sphaerotheca fuliginea spores (100 000 spores per ml). The spores are collected from infected plants. The contaminated gherkin plants are incubated at about 20° C. and at 70-80% relative humidity. Grading (% of efficacy) is carried out 12 days after the contamination, in comparison with the control plants.

Data set [2] is described as follows: log P by HPLC on reversed phase columns (EEC directive 79/831 Annex V.A8). The class given is physicochemical. The note with it: Table 1, compounds of formula (I); method [a]: LC-MS at pH 2.7, 0.1% formic acid in water / acetonitrile.
The test system of a further data set is Pyrenophora teres. Kind of data set: In vivo preventive test on Pyrenophora teres (net blotch on barley). The note with it: preventive spray, barley plants, incubated 48 hours then 12 days; for Eff. %: 500 ppm; for Efficacy: 100 ppm. As to the method:
Barley plants (“Plaisant” variety), sown in starter cups on a 50/50 peat soil-pozzolana substrate and grown at 22° C., are treated at the 1-leaf stage (10 cm height) by spraying with the active ingredient prepared as described above. Plants, used as controls, are treated with the mixture of acetone/tween/DMSO/water not containing the active material. After 24 hours, the plants are contaminated by spraying the leaves with an aqueous suspension of Pyrenophora teres spores (12 000 spores per ml). The spores are collected from a 12-day-old culture.

Data set [3] concerns Fusarium nivale (var. majus). Kind of data set: In vivo Fusarium nivale (var. majus) test (wheat) / preventive. The note with it: 500 ppm of active ingredient, evaluated 5 days after the inoculation. The method, then: [table] To produce a suitable preparation of active compound, 1 part by weight of active compound or active compound combination is mixed with the stated amounts of solvent and emulsifier, and the concentrate is diluted with water to the desired concentration. To test for preventive activity, young plants are sprayed with the preparation of active compound or active compound combination at the stated rate of application. After the spray coating has been dried, the plants are slightly injured by using a sandblast and afterwards they are sprayed with a conidia suspension of Fusarium nivale (var. majus).

Another data set concerns Alternaria brassicae. Kind of data set: In vivo preventive test on Alternaria brassicae (leaf spot on radish). The note with it: 500 ppm, preventive spray, radish plants, grading 6 days after contamination. As to the method:
Radish plants (“Pernod Clair” variety), sown in starter cups on a 50/50 peat soil-pozzolana substrate and grown at 17° C., are treated at the cotyledon stage by spraying with the active ingredient prepared as described above. Plants, used as controls, are treated with the mixture of acetone/tween/DMSO/water not containing the active material. After 24 hours, the plants are contaminated by spraying the cotyledons with an aqueous suspension of Alternaria brassicae spores (50 000 spores per ml). The spores are collected from a 15-day-old culture. […] Grading (% of efficacy) is carried out 6 days after the contamination, in comparison with the control plants.

For the next data set, the system named is Septoria tritici. Kind of data set: In vivo preventive test on Septoria tritici (leaf spot on wheat). The note with it: 500 ppm, preventive spray, wheat plants, grading 24 days after contamination. As to the method: Wheat plants (“Scipion” variety), sown in starter cups on a 50/50 peat soil-pozzolana substrate and grown at 22° C., are treated at the 1-leaf stage (10 cm height) by spraying with the active ingredient prepared as described above. Plants, used as controls, are treated with the mixture of acetone/tween/DMSO/water not containing the active material. After 24 hours, the plants are contaminated by spraying the leaves with an aqueous suspension of cryopreserved Septoria tritici spores (500 000 spores per ml). […] Grading (% of efficacy) is carried out 24 days after the contamination, in comparison with the control plants.

The test system of a further data set is Botrytis cinerea. Kind of data set: In vivo preventive test on Botrytis cinerea (grey mould), gherkin. The note with it: preventive spray, gherkin plants, grading 4 to 5 days after contamination. The method, then:
Gherkin plants (“Vert petit de Paris” variety), sown in starter cups on a 50/50 peat soil-pozzolana substrate and grown at 24° C., are treated at the Z11 cotyledon stage by spraying with the active ingredient prepared as described above. Plants, used as controls, are treated with the mixture of acetone/tween/DMSO/water not containing the active material. After 24 hours, the plants are contaminated by spraying the cotyledons with an aqueous suspension of cryopreserved Botrytis cinerea spores (50 000 spores per ml). The spores are suspended in a nutrient solution composed of 10 g/L of PDB, 50 g/L of D-Fructose, 2 g/L of NH4NO3 and 1 g/L of KH2PO4. The contaminated gherkin plants are incubated at 17° C. and at 90% relative humidity. Grading (% of efficacy) is carried out 4 to 5 days after the contamination, in comparison with the control plants.

Take `CC1CC(C(C)C)c2cccc(NC(=O)c3cn(C)nc3C(F)F)c21` (centres unmarked) [Example 1]: the Eff. % is reported as 93% in the data set with Pyricularia oryzae; 100% with Puccinia recondita (500 ppm); 100% in the data set on Phakopsora pachyrhizi; 100% in the data set with Uromyces appendiculatus (500 ppm); 80% in data set [1]; 100% in the data set with Sphaerotheca fuliginea (500 ppm). Moreover, the results for the Eff. % (in the data set with Pyrenophora teres; in data set [3]) were 81% and 86%, respectively. Besides, the logP in data set [2] is 3.74[a].
As to `CC1CC(C(C)C)c2cccc(NC(=O)c3cn(C)nc3C(F)F)c21` (centres unmarked) [Example 6], the Eff. % with Puccinia recondita (500 ppm) is recorded as 100%; in the data set with Uromyces appendiculatus (500 ppm), 100%; in the data set with Alternaria brassicae, 100%; in the data set with Sphaerotheca fuliginea (500 ppm), 97%; in the data set with Pyrenophora teres it was 96%; in the data set with Septoria tritici, 92%. In addition, in data set [2], the logP is 3.82[a].
As to `CC1CC(C)c2c(NC(=O)c3cn(C)nc3C(F)F)cccc21` (centres unmarked) [Example 8], the Eff. % with Puccinia recondita (500 ppm) was determined as 100%; in the data set on Botrytis cinerea (500 ppm), 100%; with Uromyces appendiculatus (500 ppm), 100%; in the data set on Sphaerotheca fuliginea (500 ppm) it was 95%; in the data set on Pyrenophora teres it was 88%; with Septoria tritici it was 91%. The logP in data set [2] was 3.21[a].
Turning to `CC1CCc2cccc(NC(=O)c3cn(C)nc3C(F)F)c21` (centres unmarked) [Example 9], the Eff. % is given as 100% in the data set on Puccinia recondita (500 ppm); 100% in the data set on Uromyces appendiculatus (500 ppm); 92% with Alternaria brassicae; 96% with Pyrenophora teres; 97% in the data set with Septoria tritici. Also, the logP in [2] is 2.78[a]. For the same compound, the Efficacy result in the data set on Pyrenophora teres is listed as “at least 70%”.
On to `CCCON=C1CC(C)c2c(NC(=O)c3cn(C)nc3C(F)F)cccc21` (centres unmarked) [Example 11], for which the Eff. % with Puccinia recondita (500 ppm) is recorded as 81%; in the data set on Uromyces appendiculatus (500 ppm) it was 90%; in the data set on Alternaria brassicae it was 93%; with Pyrenophora teres, 83%. Moreover, in data set [2], the logP was 3.26[a].
`Cc1nn(C)c(F)c1C(=O)Nc1cccc2c1C(C)CC2CC(C)C` (centres unmarked) [Example 20]: the Eff. % with Puccinia recondita (500 ppm) was 100%; in the data set on Uromyces appendiculatus (500 ppm), 100%; in the data set on Alternaria brassicae it was 93%; in the data set on Sphaerotheca fuliginea (500 ppm) it was 98%; in the data set with Pyrenophora teres, 97%; in the data set on Septoria tritici, 79%. In addition, the logP in [2] was 4.32[a].
In the case of `CC1CC2(CC2)c2cccc(NC(=O)c3cn(C)nc3C(F)F)c21` (centres unmarked) [Example 25], the Eff. % with Puccinia recondita (500 ppm) stood at 100%; in the data set on Phakopsora pachyrhizi it was 94%; with Botrytis cinerea (500 ppm), 88%; in the data set on Uromyces appendiculatus (500 ppm) it was 99%; in the data set with Alternaria brassicae, 93%; with Sphaerotheca fuliginea (500 ppm), 100%. The Eff. % with Pyrenophora teres amounted to 96%; with Septoria tritici, 92%. Besides, the logP in [2] was 3.13[a].
`CC(C)CC1CC(C)c2c(NC(=O)c3cn(C)nc3C(F)F)cccc21` (centres unmarked) [Example 33]: the Eff. % was 98% in the data set on Puccinia recondita (500 ppm); 100% in the data set on Uromyces appendiculatus (500 ppm); 97% in the data set on Alternaria brassicae; 100% in the data set with Sphaerotheca fuliginea (500 ppm); 97% in the data set with Pyrenophora teres; 93% in the data set on Septoria tritici. Moreover, the logP in data set [2] was 4.24[a].
Turning to `CCON=C1CC(C)c2c(NC(=O)c3cn(C)nc3C(F)F)cccc21` (centres unmarked) [Example 34], the Eff. % in the data set on Puccinia recondita (500 ppm) is given as 81%; in the data set with Uromyces appendiculatus (500 ppm), 97%; with Alternaria brassicae it was 86%; with Pyrenophora teres, 83%; in the data set on Septoria tritici, 86%. Besides, the logP in data set [2] was 2.78[a].
For `CC1CC2(CC2)c2cccc(NC(=S)c3cn(C)nc3C(F)F)c21` (centres unmarked) [Example 38], the results for the Eff. % in the data set on Puccinia recondita (500 ppm) and with Alternaria brassicae were 83% and 71%, respectively. In data set [2], the logP is 4.61[a]. The compound also gave an Efficacy in the data set with Pyrenophora teres of 70%.
Regarding `CC(C)CC1CC(C)c2c(NC(=S)c3cn(C)nc3C(F)F)cccc21` (centres unmarked) [Example 44], the Eff. % in the data set on Puccinia recondita (500 ppm) worked out at 100%; with Botrytis cinerea (500 ppm), 73%; with Uromyces appendiculatus (500 ppm) it was 100%; in the data set with Alternaria brassicae it was 95%; with Sphaerotheca fuliginea (500 ppm), 100%; with Septoria tritici, 88%.
As to `CC1CC2(CCCCC2)c2cccc(NC(=O)c3cn(C)nc3C(F)F)c21` (centres unmarked) [Example 46], the Eff. % with Puccinia recondita (100 ppm) is reported as 100%; with Botrytis cinerea (100 ppm), 75%; in the data set on Uromyces appendiculatus (100 ppm), 100%; in the data set on Sphaerotheca fuliginea (100 ppm), 100%. The logP in [2] was 4.2[a].
On to `CC1CC2(CC2)c2cccc(NC(=O)c3cn(C)nc3I)c21` (centres unmarked) [Example 52], for which the Eff. % in the data set with Puccinia recondita (100 ppm) turned out to be 90%; in the data set on Botrytis cinerea (100 ppm) it was 87%; with Uromyces appendiculatus (100 ppm) it was 100%; in the data set on Sphaerotheca fuliginea (100 ppm) it was 88%. Besides, the logP in data set [2] was 3.24[a].
The matching figures for `CC1CC2(CCCCC2)c2cccc(NC(=S)c3cn(C)nc3C(F)F)c21` (centres unmarked) [Example 53]: 100%, 82%, 100%, 100% and 4.67[a].
